Measurements from patent US4797421A, “Antioxidant comprising proanthocyanidin as principal component” (Kikkoman Corporation, priority 1987, dated 1989).

Test: Amount of lipid peroxide in salad oil heated at 180° C. with oxygen bubbling (Test Example 1, Table 1)
Parameters: Amount of lipid peroxide: unit not given here
Settings: 0.2 mg/ml in salad oil, oxygen 2 ml/sec, 40 minutes; for Amount of lipid peroxide: no additive 65.2, non-treated 10.1
Protocol: A commercially sold salad oil (a product by Showa Sangyo Co., Ltd.) was pipetted 5 ml each into test tubes. Then various kinds of proanthocyanidins shown in Table 1 below were added thereto a concentration of 0.2 mg/ml and dissolved by stirring. The test tubes were kept in an 180° C. thermostatic oil bath and oxygen gas was bubbled into them at a rate of 2 ml/sec. 40 mintues thereafter, the amount of lipid peroxide in the salad oil was measured by the method shown in Yagi's Vitamins, Vol. 49, pp. 403-405. Used as controls were said salad oil added with no proanthocyanidin (control I) and those added with a commercial catechin, a gallocatechin obtained as a by-product in Preparation Example 5 and an epigallocatechin gallate, which are the monomers forming a structural unit of proanthocyanidins (control II). These control salad oil samples were similarly treated and the amount of lipid peroxide was similarly measured, the results being shown in Table 1.

Structure (SMILES)	Amount of lipid peroxide	Lipid peroxide rise inhibition rate [%]
Oc1cc(O)c2c(c1)O[C@H](c1ccc(O)c(O)c1)[C@@H](O)C2 [Commercial d-catechin, d-catechin, reference compound]	54.7	–
Oc1cc(O)c2c(c1)OC1(c3ccc(O)c(O)c3)Oc3cc(O)c4c(c3C2C1O)OC(c1ccc(O)c(O)c1)C(O)C4 (centres unmarked) [Dimeric procyanidin A-2, procyanidin A-2]	25.0	–
Oc1cc(O)c2c(c1)OC(c1ccc(O)c(O)c1)C(O)C2c1c(O)cc(O)c2c1OC(c1ccc(O)c(O)c1)C(O)C2 (centres unmarked) [Dimeric procyanidin B-2, procyanidin B-2]	22.4	–
Oc1cc(O)c2c(c1)O[C@H](c1cc(O)c(O)c(O)c1)[C@@H](O)[C@@H]2c1c(O)cc(O)c2c1O[C@H](c1cc(O)c(O)c(O)c1)[C@@H](O)C2 [Dimeric prodelphinidin B-3, prodelphinidin B-3]	17.2	85
O=C(O[C@@H]1Cc2c(O)cc(O)cc2O[C@@H]1c1cc(O)c(O)c(O)c1)c1cc(O)c(O)c(O)c1 [Epigallocatechin gallate, reference compound]	45.0	35
Oc1cc(O)c2c(c1)O[C@H](c1cc(O)c(O)c(O)c1)[C@@H](O)C2 [Gallocatechin, gallocatechin, reference compound]	44.7	32
Oc1cc(O)c2c(c1)OC(c1ccc(O)c(O)c1)C(O)C2c1c(O)cc(O)c2c1OC(c1ccc(O)c(O)c1)C(O)C2c1c(O)cc(O)c2c1OC(c1ccc(O)c(O)c1)C(O)C2c1c(O)cc(O)c2c1OC(c1ccc(O)c(O)c1)C(O)C2 (centres unmarked) [Tetrameric procyanidin]	29.1	62
Oc1cc(O)c2c(c1)OC(c1cc(O)c(O)c(O)c1)C(O)C2c1c(O)cc(O)c2c1OC(c1cc(O)c(O)c(O)c1)C(O)C2c1c(O)cc(O)c2c1OC(c1ccc(O)c(O)c1)C(O)C2 (centres unmarked) [Trimeric prodelphinidin]	22.9	74
O=C(OC1Cc2c(O)cc(O)c(C3c4c(O)cc(O)cc4OC(c4ccc(O)c(O)c4)C3OC(=O)c3cc(O)c(O)c(O)c3)c2OC1c1ccc(O)c(O)c1)c1cc(O)c(O)c(O)c1 (centres unmarked) [procyanidin B-2 gallic acid diester]	10.5	98
O=C(OC1Cc2c(O)cc(O)c(C3c4c(O)cc(O)cc4OC(c4cc(O)c(O)c(O)c4)C3OC(=O)c3cc(O)c(O)c(O)c3)c2OC1c1cc(O)c(O)c(O)c1)c1cc(O)c(O)c(O)c1 (centres unmarked) [prodelphinidin B-2 gallic acid diester]	10.1	100
